# In paper PMC5602531, “Purification and characterisation of the yeast plasma membrane ATP binding cassette transporter Pdr11p” (PLoS ONE, 2017):
# Assays:
# Format in all cases: biochemical
# Pdr11p [1] = biological target: T1, Pdr11p (Saccharomyces cerevisiae, UniProt P40550); assay: radiolabelled ATPase assay, dose-response with purified protein
# T1 construct: gene PDR11; N-terminal FLAG-tagged Pdr11p, purified in DDM
# T1 sequence (P40550 1-1411): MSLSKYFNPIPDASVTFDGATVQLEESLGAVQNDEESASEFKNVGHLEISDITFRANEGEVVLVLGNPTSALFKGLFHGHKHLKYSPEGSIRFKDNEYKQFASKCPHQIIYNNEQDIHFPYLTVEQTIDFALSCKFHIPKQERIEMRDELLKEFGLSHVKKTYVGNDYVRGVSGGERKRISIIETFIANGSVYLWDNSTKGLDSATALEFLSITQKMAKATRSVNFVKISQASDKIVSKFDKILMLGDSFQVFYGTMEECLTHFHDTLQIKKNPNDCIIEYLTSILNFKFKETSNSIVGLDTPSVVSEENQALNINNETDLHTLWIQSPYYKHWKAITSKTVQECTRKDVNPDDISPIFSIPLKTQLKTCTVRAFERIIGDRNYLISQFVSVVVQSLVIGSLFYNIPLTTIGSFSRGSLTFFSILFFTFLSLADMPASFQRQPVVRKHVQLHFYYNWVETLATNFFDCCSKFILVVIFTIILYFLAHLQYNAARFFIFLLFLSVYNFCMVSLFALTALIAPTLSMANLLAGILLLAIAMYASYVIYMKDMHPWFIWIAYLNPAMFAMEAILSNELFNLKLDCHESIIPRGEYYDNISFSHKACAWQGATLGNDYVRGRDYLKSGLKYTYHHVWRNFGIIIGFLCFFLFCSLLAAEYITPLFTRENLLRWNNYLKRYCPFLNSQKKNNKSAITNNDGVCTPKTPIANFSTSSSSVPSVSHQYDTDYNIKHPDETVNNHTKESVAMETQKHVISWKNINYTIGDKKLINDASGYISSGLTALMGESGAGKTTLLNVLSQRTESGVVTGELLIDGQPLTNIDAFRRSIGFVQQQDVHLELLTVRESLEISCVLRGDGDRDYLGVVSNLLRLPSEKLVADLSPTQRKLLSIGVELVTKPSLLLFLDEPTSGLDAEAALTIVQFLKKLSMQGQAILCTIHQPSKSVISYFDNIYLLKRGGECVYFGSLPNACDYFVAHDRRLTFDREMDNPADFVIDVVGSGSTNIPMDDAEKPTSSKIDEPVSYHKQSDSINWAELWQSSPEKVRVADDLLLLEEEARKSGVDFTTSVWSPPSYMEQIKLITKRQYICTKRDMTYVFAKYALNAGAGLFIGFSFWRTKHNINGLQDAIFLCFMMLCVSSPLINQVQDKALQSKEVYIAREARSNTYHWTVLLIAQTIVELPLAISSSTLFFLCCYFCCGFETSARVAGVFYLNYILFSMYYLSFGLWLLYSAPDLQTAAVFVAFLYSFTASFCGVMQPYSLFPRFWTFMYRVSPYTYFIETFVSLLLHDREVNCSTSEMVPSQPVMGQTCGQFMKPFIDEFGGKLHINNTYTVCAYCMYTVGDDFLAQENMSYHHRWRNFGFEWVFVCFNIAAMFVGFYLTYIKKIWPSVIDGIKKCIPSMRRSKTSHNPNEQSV
# Pdr11p [2] = biological target: T1, Pdr11p; assay: radiolabelled ATPase assay with purified protein, […] AlF3
# Pdr11p [3] = biological target: T1, Pdr11p; assay: radiolabelled ATPase assay (release of inorganic phosphate) with purified protein
# Aus1p = biological target: T2, Aus1p (Saccharomyces cerevisiae, UniProt Q08409); assay: radiolabelled ATPase assay with liposome-reconstituted protein
# T2 construct: gene AUS1; FLAG-tagged Aus1p, purified and reconstituted in liposomes
# T2 sequence (Q08409 1-1394): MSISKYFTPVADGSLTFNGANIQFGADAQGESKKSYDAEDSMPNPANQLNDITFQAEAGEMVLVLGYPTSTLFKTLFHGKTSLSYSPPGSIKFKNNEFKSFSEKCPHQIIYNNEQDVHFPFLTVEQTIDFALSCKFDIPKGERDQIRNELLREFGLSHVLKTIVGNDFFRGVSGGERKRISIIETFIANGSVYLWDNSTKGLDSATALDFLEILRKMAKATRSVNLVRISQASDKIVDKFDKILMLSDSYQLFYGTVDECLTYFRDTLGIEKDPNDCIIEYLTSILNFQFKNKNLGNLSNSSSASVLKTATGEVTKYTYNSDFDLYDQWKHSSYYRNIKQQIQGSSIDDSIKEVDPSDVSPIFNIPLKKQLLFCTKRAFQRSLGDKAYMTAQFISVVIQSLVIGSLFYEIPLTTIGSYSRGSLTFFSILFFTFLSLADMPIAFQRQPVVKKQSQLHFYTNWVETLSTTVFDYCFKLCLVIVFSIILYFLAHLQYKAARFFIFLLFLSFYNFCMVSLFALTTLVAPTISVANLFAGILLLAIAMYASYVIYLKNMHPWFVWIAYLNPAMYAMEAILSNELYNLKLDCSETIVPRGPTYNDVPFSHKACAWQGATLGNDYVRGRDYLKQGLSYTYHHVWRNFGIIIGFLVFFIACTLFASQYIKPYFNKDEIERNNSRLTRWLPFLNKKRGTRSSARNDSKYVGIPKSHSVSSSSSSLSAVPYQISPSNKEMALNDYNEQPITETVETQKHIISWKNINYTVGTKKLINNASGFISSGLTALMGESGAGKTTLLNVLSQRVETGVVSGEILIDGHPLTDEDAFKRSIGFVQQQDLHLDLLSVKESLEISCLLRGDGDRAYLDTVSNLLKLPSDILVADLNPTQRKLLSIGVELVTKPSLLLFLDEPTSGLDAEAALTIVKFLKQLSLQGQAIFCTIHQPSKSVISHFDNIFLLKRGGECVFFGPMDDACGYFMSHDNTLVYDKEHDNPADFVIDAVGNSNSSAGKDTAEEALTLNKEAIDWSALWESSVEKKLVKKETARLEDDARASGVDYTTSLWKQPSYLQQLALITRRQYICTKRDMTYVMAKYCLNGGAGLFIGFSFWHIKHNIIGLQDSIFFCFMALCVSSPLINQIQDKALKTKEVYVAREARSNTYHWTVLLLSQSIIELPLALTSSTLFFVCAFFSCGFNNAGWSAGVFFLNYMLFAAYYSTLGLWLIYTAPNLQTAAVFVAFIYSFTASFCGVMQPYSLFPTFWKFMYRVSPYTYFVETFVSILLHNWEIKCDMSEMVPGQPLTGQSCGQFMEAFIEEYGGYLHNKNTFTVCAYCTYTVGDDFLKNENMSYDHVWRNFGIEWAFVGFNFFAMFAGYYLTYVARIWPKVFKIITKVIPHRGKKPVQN
smiles,measurement,setting,value
[O]=[V]([OH])([OH])[OH] [orthovanadate],IC50,Pdr11p [1],4 ± 2 mM
[F][Al]([F])[F] [aluminium fluoride],"radiolabelled ATPase assay with purified protein, 1 mM AlF3",Pdr11p [2],strongly inhibited by the classical inhibitors of ABC proteins beryllium fluoride and aluminium fluoride (Fig 4B)
Nc1ncnc2c1ncn2[C@@H]1O[C@H](COP(=O)(O)OP(=O)(O)OP(=O)(O)O)[C@@H](O)[C@H]1O [ATP],radiolabelled ATPase assay (release of inorganic phosphate) with purified protei,Pdr11p [3],~ 60 ± 24 nmol of ATP/min/mg of protein
same,radiolabelled ATPase assay with liposome-reconstituted protein,Aus1p,Purified Pdr11p and Aus1p were reconstituted into different liposomes (containing Rho-PE as fluorescent lipid marker) and assayed for ATPase activity
